Test: Biodistribution of radioactivity in rat tissues after intravenous injection
Format: in vivo
Conditions: for Radioactivity in Plasma / Radioactivity in Whole blood: composite curve of 9 rats
Protocol: Sixteen adult male Sprague-Dawley rats (body weight 250-320 g: mean±SD=288±25 g) were used in 5 separate experiments. Each rat was injected with ˜13 MBq Compound 1, at a specific activity of […], via a previously catheterised tail vein. The associated stable compound was 0.5±0.2 nmol/kg. Discrete samples of arterial blood were collected from 9 of the rats via a previously catheterised tail artery.
Tissues were sampled post-mortem using an established protocol, as described in Hirani et al, Synapse 42:164-176 (2001). The radioactivity concentration data obtained at 12 times up to 90 min after radioligand injection were normalised for both amount injected and body weight, giving:—‘uptake units’=(cpm/g tissue)/(injected cpm/g body weight).

Question: Which “extraction of radioactivity into the brain” value (following intravenous injection) does the source give for `CSc1cccc(N([11CH3])C(=N)Nc2cc(SC)ccc2Cl)c1` [Compound 1, (N-(2-chloro-5-(methylthio)phenyl)-N′-(3-methylthio)phenyl)-N′-[N-methyl-^11C]-methylguanidine] here?
Answer: high extraction

Question: And the “Radioactivity in Cerebellum” value (i.v., 1 min)?
Answer: 2.21 Uptake Units

Question: What about the “Radioactivity in Entorhinal cortex” value (i.v., 1 min) of the same compound?
Answer: 1.92 Uptake Units

Question: What about the “Radioactivity in Fat” value (i.v., 1 min) of the same compound?
Answer: 0.15 Uptake Units

Question: What about the “Radioactivity in Heart (ventricle)” value (i.v., 1 min) of the same compound?
Answer: 10.4 Uptake Units

Question: And the “Radioactivity in Hippocampus” value (i.v., 1 min)?
Answer: 1.61 Uptake Units

Question: What about the “Radioactivity in Hypothalamus” value (i.v., 1 min) of the same compound?
Answer: 2.31 Uptake Units

Question: And the “Radioactivity in Inferior collicull” value (i.v., 1 min)?
Answer: 3.42 Uptake Units

Question: What about the “Radioactivity in Kidney” value (i.v., 1 min) of the same compound?
Answer: 12.5 Uptake Units

Question: What about the “Radioactivity in Large intestine” value (i.v., 1 min) of the same compound?
Answer: 2.71 Uptake Units

Question: And the “Radioactivity in Lge. intestine content” value (i.v., 1 min)?
Answer: 0.11 Uptake Units

Question: What about the “Radioactivity in Liver” value (i.v., 1 min) of the same compound?
Answer: 2.48 Uptake Units

Question: And the “Radioactivity in Lung” value (i.v., 1 min)?
Answer: 56.4 Uptake Units

Question: And the “Radioactivity in Medulla with Pons” value (i.v., 1 min)?
Answer: 2.18 Uptake Units

Question: And the “Radioactivity in Olfactory bulbs” value (i.v., 1 min)?
Answer: 2.34 Uptake Units

Question: What about the “Radioactivity in Olfactory tubercles” value (i.v., 1 min) of the same compound?
Answer: 2.49 Uptake Units

Question: And the “Radioactivity in Prefrontal cortex” value (i.v., 1 min)?
Answer: 2.52 Uptake Units

Question: What about the “Radioactivity in Skeletal muscle” value (i.v., 1 min) of the same compound?
Answer: 1.07 Uptake Units

Question: What about the “Radioactivity in Skin” value (i.v., 1 min) of the same compound?
Answer: 0.47 Uptake Units

Question: And the “Radioactivity in Sm. intestine content” value (i.v., 1 min)?
Answer: 4.96 Uptake Units

Question: What about the “Radioactivity in Small intestine” value (i.v., 1 min) of the same compound?
Answer: 3.38 Uptake Units

Question: And the “Radioactivity in Somatosensory cortex” value (i.v., 1 min)?
Answer: 2.22 Uptake Units

Question: What about the “Radioactivity in Spleen” value (i.v., 1 min) of the same compound?
Answer: 3.04 Uptake Units

Question: And the “Radioactivity in Stomach” value (i.v., 1 min)?
Answer: 1.60 Uptake Units

Question: And the “Radioactivity in Striata” value (i.v., 1 min)?
Answer: 2.13 Uptake Units

Question: What about the “Radioactivity in Superior collicull” value (i.v., 1 min) of the same compound?
Answer: 2.42 Uptake Units

Question: And the “Radioactivity in Testis” value (i.v., 1 min)?
Answer: 0.50 Uptake Units

Question: And the “Radioactivity in Thalamus” value (i.v., 1 min)?
Answer: 2.59 Uptake Units

Question: And the “Radioactivity in Visual cortex” value (i.v., 1 min)?
Answer: 2.46 Uptake Units

Question: What about the “Radioactivity in Plasma” value (i.v., 1 min) of the same compound?
Answer: 0.51 Uptake Units

Question: What about the “Radioactivity in Whole blood” value (i.v., 1 min) of the same compound?
Answer: 0.59 Uptake Units

Question: What about the “Radioactivity in Cerebellum” value (i.v., 2 min) of the same compound?
Answer: 2.47 Uptake Units

Question: What about the “Radioactivity in Entorhinal cortex” value (i.v., 2 min) of the same compound?
Answer: 2.13 Uptake Units

Question: What about the “Radioactivity in Fat” value (i.v., 2 min) of the same compound?
Answer: 0.18 Uptake Units

Question: And the “Radioactivity in Heart (ventricle)” value (i.v., 2 min)?
Answer: 8.20 Uptake Units

Question: And the “Radioactivity in Hippocampus” value (i.v., 2 min)?
Answer: 1.73 Uptake Units

Question: What about the “Radioactivity in Hypothalamus” value (i.v., 2 min) of the same compound?
Answer: 2.29 Uptake Units

Question: And the “Radioactivity in Inferior collicull” value (i.v., 2 min)?
Answer: 3.65 Uptake Units

Question: What about the “Radioactivity in Kidney” value (i.v., 2 min) of the same compound?
Answer: 10.8 Uptake Units

Question: What about the “Radioactivity in Large intestine” value (i.v., 2 min) of the same compound?
Answer: 3.11 Uptake Units

Question: And the “Radioactivity in Lge. intestine content” value (i.v., 2 min)?
Answer: 0.21 Uptake Units

Question: And the “Radioactivity in Liver” value (i.v., 2 min)?
Answer: 1.65 Uptake Units

Question: What about the “Radioactivity in Lung” value (i.v., 2 min) of the same compound?
Answer: 44.5 Uptake Units

Question: And the “Radioactivity in Medulla with Pons” value (i.v., 2 min)?
Answer: 2.35 Uptake Units

Question: What about the “Radioactivity in Olfactory bulbs” value (i.v., 2 min) of the same compound?
Answer: 2.50 Uptake Units

Question: And the “Radioactivity in Olfactory tubercles” value (i.v., 2 min)?
Answer: 2.56 Uptake Units

Question: What about the “Radioactivity in Prefrontal cortex” value (i.v., 2 min) of the same compound?
Answer: 2.73 Uptake Units

Question: And the “Radioactivity in Skeletal muscle” value (i.v., 2 min)?
Answer: 1.14 Uptake Units

Question: What about the “Radioactivity in Skin” value (i.v., 2 min) of the same compound?
Answer: 0.54 Uptake Units

Question: What about the “Radioactivity in Sm. intestine content” value (i.v., 2 min) of the same compound?
Answer: 5.62 Uptake Units

Question: What about the “Radioactivity in Small intestine” value (i.v., 2 min) of the same compound?
Answer: 3.87 Uptake Units

Question: And the “Radioactivity in Somatosensory cortex” value (i.v., 2 min)?
Answer: 2.56 Uptake Units

Question: And the “Radioactivity in Spleen” value (i.v., 2 min)?
Answer: 2.65 Uptake Units

Question: What about the “Radioactivity in Stomach” value (i.v., 2 min) of the same compound?
Answer: 1.49 Uptake Units

Question: What about the “Radioactivity in Striata” value (i.v., 2 min) of the same compound?
Answer: 2.33 Uptake Units

Question: What about the “Radioactivity in Superior collicull” value (i.v., 2 min) of the same compound?
Answer: 2.64 Uptake Units

Question: And the “Radioactivity in Testis” value (i.v., 2 min)?
Answer: 0.51 Uptake Units

Question: And the “Radioactivity in Thalamus” value (i.v., 2 min)?
Answer: 2.41 Uptake Units

Question: What about the “Radioactivity in Visual cortex” value (i.v., 2 min) of the same compound?
Answer: 2.71 Uptake Units

Question: And the “Radioactivity in Plasma” value (i.v., 2 min)?
Answer: 0.37 Uptake Units

Question: What about the “Radioactivity in Whole blood” value (i.v., 2 min) of the same compound?
Answer: 0.42 Uptake Units

Question: What about the “Radioactivity in Cerebellum” value (i.v., 5 min) of the same compound?
Answer: 2.43 Uptake Units

Question: And the “Radioactivity in Entorhinal cortex” value (i.v., 5 min)?
Answer: 2.16 Uptake Units

Question: What about the “Radioactivity in Fat” value (i.v., 5 min) of the same compound?
Answer: 0.23 Uptake Units

Question: What about the “Radioactivity in Heart (ventricle)” value (i.v., 5 min) of the same compound?
Answer: 4.27 Uptake Units

Question: And the “Radioactivity in Hippocampus” value (i.v., 5 min)?
Answer: 2.00 Uptake Units

Question: What about the “Radioactivity in Hypothalamus” value (i.v., 5 min) of the same compound?
Answer: 2.28 Uptake Units

Question: What about the “Radioactivity in Inferior collicull” value (i.v., 5 min) of the same compound?
Answer: 3.23 Uptake Units

Question: And the “Radioactivity in Kidney” value (i.v., 5 min)?
Answer: 8.70 Uptake Units

Question: And the “Radioactivity in Large intestine” value (i.v., 5 min)?
Answer: 2.73 Uptake Units

Question: And the “Radioactivity in Lge. intestine content” value (i.v., 5 min)?
Answer: 0.13 Uptake Units

Question: And the “Radioactivity in Liver” value (i.v., 5 min)?
Answer: 2.95 Uptake Units

Question: And the “Radioactivity in Lung” value (i.v., 5 min)?
Answer: 38.7 Uptake Units

Question: And the “Radioactivity in Medulla with Pons” value (i.v., 5 min)?
Answer: 2.34 Uptake Units

Question: And the “Radioactivity in Olfactory bulbs” value (i.v., 5 min)?
Answer: 2.18 Uptake Units

Question: And the “Radioactivity in Olfactory tubercles” value (i.v., 5 min)?
Answer: 2.42 Uptake Units

Question: And the “Radioactivity in Prefrontal cortex” value (i.v., 5 min)?
Answer: 2.67 Uptake Units

Question: And the “Radioactivity in Skeletal muscle” value (i.v., 5 min)?
Answer: 1.32 Uptake Units

Question: And the “Radioactivity in Skin” value (i.v., 5 min)?
Answer: 0.61 Uptake Units

Question: What about the “Radioactivity in Sm. intestine content” value (i.v., 5 min) of the same compound?
Answer: 6.84 Uptake Units

Question: What about the “Radioactivity in Small intestine” value (i.v., 5 min) of the same compound?
Answer: 3.17 Uptake Units

Question: And the “Radioactivity in Somatosensory cortex” value (i.v., 5 min)?
Answer: 2.69 Uptake Units

Question: What about the “Radioactivity in Spleen” value (i.v., 5 min) of the same compound?
Answer: 3.85 Uptake Units

Question: What about the “Radioactivity in Stomach” value (i.v., 5 min) of the same compound?
Answer: 1.26 Uptake Units

Question: And the “Radioactivity in Striata” value (i.v., 5 min)?
Answer: 2.35 Uptake Units

Question: And the “Radioactivity in Superior collicull” value (i.v., 5 min)?
Answer: 2.59 Uptake Units

Question: What about the “Radioactivity in Testis” value (i.v., 5 min) of the same compound?
Answer: 0.56 Uptake Units

Question: What about the “Radioactivity in Thalamus” value (i.v., 5 min) of the same compound?
Answer: 2.59 Uptake Units

Question: What about the “Radioactivity in Urine” value (i.v., 5 min) of the same compound?
Answer: 11.7 Uptake Units

Question: What about the “Radioactivity in Visual cortex” value (i.v., 5 min) of the same compound?
Answer: 3.05 Uptake Units

Question: What about the “Radioactivity in Plasma” value (i.v., 5 min) of the same compound?
Answer: 0.24 Uptake Units

Question: What about the “Radioactivity in Whole blood” value (i.v., 5 min) of the same compound?
Answer: 0.26 Uptake Units

Question: What about the “Radioactivity in Cerebellum” value (i.v., 10 min) of the same compound?
Answer: 2.08 Uptake Units
